The record followed here is patent publication US10669240B2, “5-substituted indazole-3-carboxamides and preparation and use thereof” (Samumed, LLC, priority 2014, dated 2020).

What is called EC50 is the concentration giving half of the maximal effect.

Holding throughout (format): cell-based
The test system of assay [1] is Wnt activity (Wnt-responsive SP5 promoter luciferase reporter in SW480 cells). The assay can be described thus: Wnt activity reporter assay: SW480 cells with SP5 promoter-driven firefly luciferase. As to conditions: Homo sapiens, 24 h after compound addition, read-out: Wnt inhibition. Summed up: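 SW480 cells (APC-mutant colon line) stably carrying a lentiviral SP5-promoter (eight TCF/LEF sites) firefly luciferase reporter were plated at ~10,000 cells/well. Luminescence was normalized to DMSO-only cells and used for IC50.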
In general terms: A reporter such as luciferase makes a cellular process visible.

For a further assay, the target named is DYRK1A (Homo sapiens (Human), UniProt Q13627). The assay can be described thus: DYRK1A activity Tau assay: pSer396 Tau in SH-SY5Y cells by ELISA / western blot. The conditions noted are these: overnight (16-18 h) exposure. On the technique in general: An ELISA detects its analyte on a solid surface through an enzyme-linked reagent.
Assay [2] has as its system primary human mesenchymal stem cells (hMSCs). The assay can be described thus: Chondrogenesis assay in primary human mesenchymal stem cells, nodule count vs TGF-β3 positive control. As to conditions: 6 days; for Conc (nM) of Max. activity: 6-point dose-response 2700 nM to 10 nM, dose at which maximum chondrogenesis activity was reached; for Max. Activity as % TGF-β3 activity: relative to TGF-β3 (10 ng/mL) positive control; for Conc (nM) of 100% TGF-β3 activity: concentration required to induce chondrogenesis equivalent to TGF-β3 (10 ng/mL). From the text: The above synthesized compounds were screened using primary human mesenchymal stem cells (hMSCs) to determine their ability to induce chondrogenesis (process by which cartilage is developed).
Human Mesenchymal Stem Cell Culture:
Primary human mesenchymal stem cells (hMSCs) were purchased from Lonza (Walkersville, Md.) and expanded in Mesenchymal Stem Cell Growth Media (Lonza). Cells between passage 3 and 6 were used for the experiments.
Number of nodules in each well was normalized to the average of 3 DMSO treated wells on the same plate using Excel (Microsoft Inc.). The normalized averages (fold change over DMSO) of 3 replicate wells for each compound concentration were calculated. Due to solubility limitations of some of the compounds, curve fitting was incomplete leading to inaccurate EC50 determinations.
Using TGF-β3 as a positive control, the concentration of test compounds required to induce equivalent levels of chondrogenesis is reported. In addition, the maximum activity of each compound and the respective dose that each compound reached maximum chondrogenesis activity is reported.

The test system of assay [3] is primary human fibroblasts derived from IPF patients (LL29 cells). Kind of assay: Inhibition of the fibrotic process: αSMA staining in TGF-β1 treated LL29 fibroblasts. As to conditions: Fibroblast, 72 h, TGF-β1 10 ng/ml, 3 days, read-out: Inhibition of fibrosis IC50.
Method: The above synthesized compounds were screened using primary human fibroblasts (derived from IPF patients) treated with TGF-β1 to determine their ability to inhibit the fibrotic process.
Each compound was dissolved in DMSO as a 10 mM stock and used to prepare compound source plates. […] LL29 cells were plated at 1,000 cells/well in 50 μl/well serum free F12 medium. […] Wells untreated with TGF-β1 were used as control for normalization and calculating IC50 values. Cells were incubated at 37° C. and 5% CO2 for 3 days. Cells were fixed using 4% formaldehyde (Electron Microscopy Sciences), washed 3 times with PBS followed by blocking and permeabilization using 3% Bovine Serum Albumin (BSA; Sigma) and 0.3% Triton X-100 (Sigma) in PBS. […] The IC50 values are reported.

From the text for DYRK1A: In another example, in vitro assays for DYRK1A biological activity may be used, e.g. regulation of microtubule-associated protein tau (MAPT/Tau) phosphorylation in neuronal cell line such as the human SH-SY5Y neuroblastoma cell line. Assays for DYRK1a-regulated level of phosphorylation can include monitoring levels of basal pSer396 Tau, which can be measured, for example, by serial dilutions of a candidate inhibitor composition using a ten micromolar top concentration and detected by ELISA or Western Blotting. An exemplary assay for DYRK-1a-regulated phosphorylation uses the SH-SY5Y cells cultured in a 96 well plate format for a period of time sufficient to stabilize microtubules and Tau phosphorylation, usually at least 2 days, then treated with a 1/3 serial dilution of compounds overnight and lysed. The cell lysate is resolved by SDS PAGE, then transferred to nitrocellulose and probed with an antibody specific for pSer396 Tau.
In a further example, the activity of a candidate compound can be measured by ELISA by adding the lysate mentioned above onto total Tau-coated plates and detected with a specific pSer396 antibody.

Take `CC(C)Oc1ccc(NC(=O)c2n[nH]c3ccc(-c4cncc(CN5CCCCC5)c4)cc23)cn1` [Compound 67, N-(6-Isopropoxypyridin-3-yl)-5-(5-(piperidin-1-ylmethyl)pyridin-3-yl)-1H-indazole-3-carboxamide]: the IC50 was found to be 0.041 µM in assay [1] and 0.251 µM in assay [3]. This compound showed an EC50 on DYRK1A of 0.003 µM. Further, in assay [2], the “Conc (nM) of Max. activity” value was 2700 nM. The “Max. Activity as % TGF-β3 activity” value in assay [2] turned out to be 82%.

On to `CC(C)CC(=O)Nc1ccncc1NC(=O)c1n[nH]c2ccc(-c3cncc(CN4CCCCC4)c3)cc12` [Compound 73, N-(4-(3-Methylbutanamido)pyridin-3-yl)-5-(5-(piperidin-1-ylmethyl)pyridin-3-yl)-1H-indazole-3-carboxamide], for which the IC50 in assay [1] was determined as 0.025 µM. In addition, the EC50 at DYRK1A came to 0.057 µM. Further, in assay [2], the “Conc (nM) of Max. activity” value is listed as 900 nM and the “Max. Activity as % TGF-β3 activity” value amounted to 65%. The IC50 in assay [3] stood at 1.87 µM.

On to `O=C(Nc1ccnc(C(F)(F)F)c1)c1n[nH]c2ccc(-c3cncc(CN4CCCCC4)c3)cc12` [Compound 80, 5-(5-(Piperidin-1-ylmethyl)pyridin-3-yl)-N-(2-(trifluoromethyl)pyridin-4-yl)-1H-indazole-3-carboxamide], for which, in assay [1], the IC50 was found to be 0.036 µM. Moreover, the EC50 at DYRK1A was 0.036 µM. For the same compound, in assay [2], the “Conc (nM) of Max. activity” value is given as 900 nM and the “Max. Activity as % TGF-β3 activity” value was determined as 20%. In assay [3], the IC50 turned out to be 0.303 µM.

`CC1CCN(Cc2cncc(-c3ccc4[nH]nc(C(=O)Nc5cccnc5)c4c3)c2)CC1` [Compound 82, 5-(5-((4-Methylpiperidin-1-yl)methyl)pyridin-3-yl)-N-(pyridin-3-yl)-1H-indazole-3-carboxamide]: in assay [1], the IC50 turned out to be 0.007 µM. At DYRK1A, this compound returned an EC50 of 0.002 µM. In assay [2], the “Conc (nM) of Max. activity” value amounted to 900 nM, the “Conc (nM) of 100% TGF-β3 activity” value was 900 nM and the “Max. Activity as % TGF-β3 activity” value is reported as 109%. The IC50 in assay [3] turned out to be 0.129 µM.

In the case of `CC(C)Oc1ccc(NC(=O)c2n[nH]c3ccc(-c4cncc(CN5CC6CC(C5)O6)c4)cc23)cn1` [Compound 85, 5-(5-((6-Oxa-3-azabicyclo[3.1.1]heptan-3-yl)methyl)pyridin-3-yl)-N-(6-isopropoxypyridin-3-yl)-1H-indazole-3-carboxamide], the IC50 turned out to be 0.061 µM in assay [1] and 0.18 µM in assay [3]. The compound also yielded an EC50 at DYRK1A of 0.004 µM. In addition, in assay [2], the “Conc (nM) of Max. activity” value was found to be 900 nM. The “Max. Activity as % TGF-β3 activity” value in assay [2] was 49%.

For `CC(C)NC(=O)c1n[nH]c2ccc(-c3cncc(CN4CCC(F)(F)CC4)c3)cc12` [Compound 132, 5-(5-((4,4-Difluoropiperidin-1-yl)methyl)pyridin-3-yl)-N-isopropyl-1H-indazole-3-carboxamide], the IC50 in assay [1] was determined as 0.047 µM; in assay [3] it was 0.237 µM. This compound came in with an EC50 on DYRK1A of 0.006 µM. The “Conc (nM) of Max. activity” value in assay [2] was 2700 nM. The “Conc (nM) of 100% TGF-β3 activity” value in assay [2] amounted to 2700 nM.

As to `C[C@@H]1CN(c2ccc(NC(=O)c3n[nH]c4ccc(-c5cncc(CN6CCCCC6)c5)cc34)cn2)C[C@H](C)O1` [Compound 1141, N-(6-((2S,6R)-2,6-dimethylmorpholino)pyridin-3-yl)-5-(5-(piperidin-1-ylmethyl)pyridin-3-yl)-1H-indazole-3-carboxamide], in assay [1], the IC50 is 0.003 µM. Moreover, the EC50 on DYRK1A was found to be 0.001 µM. Also, in assay [2], the “Conc (nM) of Max. activity” value stood at 2700 nM, the “Conc (nM) of 100% TGF-β3 activity” value was determined as 2700 nM and the “Max. Activity as % TGF-β3 activity” value is listed as 129%. Moreover, the IC50 in assay [3] is 0.468 µM.
